What was measured:
trypsin [1] = target: T1, trypsin (Bos taurus, UniProt P00760); assay: Trypsin-catalyzed ring opening polymerization of cyclic siloxanes; format: biochemical, bovine; set-up: purchased Sigma-Aldrich #T4665; host or cells: bovine pancreas; conditions: 25° C., pH 7.0, 8 days, qualitative GC; for Cyclic Area Percent, Tetramer (x = 4), Trypsin / Cyclic Area Percent, Trimer (x = 3), Trypsin / Cyclic Area Percent, Pentamer (x = 5), Trypsin: with trypsin; for Cyclic Area Percent, Tetramer (x = 4), Control / Cyclic Area Percent, Trimer (x = 3), Control / Cyclic Area Percent, Pentamer (x = 5), Control: without trypsin
T1 sequence (P00760 24-246): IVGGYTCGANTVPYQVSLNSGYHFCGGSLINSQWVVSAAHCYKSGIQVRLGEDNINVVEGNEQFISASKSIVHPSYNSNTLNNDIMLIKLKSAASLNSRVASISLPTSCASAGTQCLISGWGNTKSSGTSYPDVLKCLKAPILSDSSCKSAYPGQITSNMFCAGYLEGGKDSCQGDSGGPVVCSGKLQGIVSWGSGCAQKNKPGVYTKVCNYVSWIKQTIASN
Source text: The ability of trypsin to catalyze the cleavage and formation of Si—O bonds during the ring opening polymerization of cyclic siloxanes was explored under mild conditions. Specifically, five cyclic siloxanes: hexamethylcyclotrisiloxane, octamethylcyclotetrasiloxane, trimethyltri(trifluoropropyl)cyclotrisiloxane, tetramethyltetra(trifluoropropyl)cyclotetrasiloxane, and tetramethyltetraphenylcyclotetrasiloxane, were selected to study how the activity of trypsin varied as a result of different steric and electronic interactions with the substrate.
The two-phase reactions were formulated with a 4:1 monomer to enzyme weight ratio and conducted at 25° C. in neutral media (pH 7.0) for 8 days. The reaction products were isolated and qualitatively analyzed by GC (Table 5).

[2] = Protease-catalyzed condensation study after three hours; format: biochemical
Method: In comparison to control reactions, the ability of the proteases detailed in Table 3 to catalyse siloxane condensation was screened with […]. Comparatively, the original reactions conducted in the enzyme-catalysed condensation study were performed for six days versus three hours in this study.
Prior to reaction, the glass vials were silylated. […].
TLCK inhibits trypsin by alkylating the histidine residue in the catalytic triad.

[3] = Hydrolysis and condensation control reactions after three hours; conditions: for condensation of trimethylethoxysilane (result in words): pH 7.0, 25° C., three hours
Method: Prior to reaction, the alkoxysilane was pre-treated with sodium hydrogencarbonate due to the potential presence of residual chloro-functional silanes. The reactions were formulated with a 4:1 trimethylethoxysilane to protein weight ratio (˜1000:l alkoxysilane to trypsin mole ratio) in neutral media (pH 7.0) and conducted at 25° C. for three hours.

trypsin [4] = target: T1, trypsin; assay: Trypsin-catalyzed hydrolysis and condensation of alkoxysilanes; format: biochemical, bovine; set-up: purchased Sigma-Aldrich #T4665; host or cells: bovine pancreas; conditions: 4:1 monomer to enzyme weight ratio, 25° C., three hours
[5] = Hydrolysis and condensation of trimethylethoxysilane by different sources of trypsin; effect of calcium; format: biochemical; conditions: for increase of yield of the condensation of trimethylsilanol with calcium: 20 mM CaCl2, pH 7.0, 25° C., three hours; for hydrolysis of trimethylethoxysilane and condensation of trimethylsilanol (result in words): pH 7.0, 25° C.
Source text: Although various sources (e.g. mammalian, fish) of trypsin are similar (e.g. tertiary structure), their selectivity and activity may be different. […] . The reaction products were isolated and quantitatively analysed by GC (FIG. 24).
Calcium activation of trypsin induces changes in the tertiary structure of the enzyme. […] . […] The reaction products were isolated and quantitatively analysed by GC (FIG. 25).

[6] = Enzyme-catalyzed condensation study after six days; format: biochemical; conditions: water, 25° C.
Source text: This study was directed to an enzyme screen with […] in order to evaluate the ability of various enzymes to catalyze the formation of a siloxane bond. Based on the similarities of the proteins isolated from the Tethya aurantia marine sponge (silicatein), Cylindrotheca fusiformis diatom (silaffin), and Equisetum telmateia plant (biopolymer extract), a series of lipases and serine-proteases were selected as homologous proteolytic enzymes. […] […]. In this study, control reactions were defined as non-enzymatic reactions. Specifically, experiments conducted in the absence of a protein were defined as negative control reactions. Proteinaceous molecules such as bovine serum albumin and porcine γ-globulins were used to study non-specific protein catalysis.
[…]. […] (˜200 mg/mL).

Question: What does the source list for C[Si]1(C)O[Si](C)(C)O[Si](C)(C)O[Si](C)(C)O1 [B, octamethylcyclotetrasiloxane]?
Answer: Cyclic Area Percent, Tetramer (x = 4), Trypsin (trypsin [1]): (99.8); Cyclic Area Percent, Trimer (x = 3), Trypsin (trypsin [1]): (0.2); Cyclic Area Percent, Tetramer (x = 4), Control (trypsin [1]): (99.8); Cyclic Area Percent, Trimer (x = 3), Control (trypsin [1]): (0.2)

Question: What does the source list for [Ca+2].[Cl-].[Cl-] [CaCl2, calcium chloride]?
Answer: condensation of trimethylsilanol (result in words) ([2]; pH 7): not observed; condensation of trimethylethoxysilane (result in words) [3]: not observed

Question: Which “condensation of trimethylsilanol (result in words)” value ([2]; pH 7.0, three hours) does the source give for poly-L-lysine here?
Answer: not observed

Question: What about the “hydrolysis of trimethylethoxysilane (result in words)” value ([3]; neutral medium (pH 7.0)) of the same molecule?
Answer: promoted the hydrolysis

Question: What about the “condensation of trimethylethoxysilane (result in words)” value [3] of the same molecule?
Answer: not observed

Question: With C[Si]1(C)O[Si](C)(C)O[Si](C)(C)O1 [A, hexamethylcyclotrisiloxane] as the molecule, how does the “Cyclic Area Percent, Trimer (x = 3), Trypsin” value (trypsin [1]) read?
Answer: (100)

Question: What about the “Cyclic Area Percent, Trimer (x = 3), Control” value (trypsin [1]) of the same molecule?
Answer: (100)

Question: With elastase: porcine pancreatic elastase as the molecule, how does the “condensation of trimethylsilanol (result in words)” value ([2]; pH 7.0, three hours) read?
Answer: inactivity

Question: What does the source list for C[Si]1(CCC(F)(F)F)O[Si](C)(CCC(F)(F)F)O[Si](C)(CCC(F)(F)F)O1 (centres unmarked) [C, trimethyltri(trifluoropropyl)cyclotrisiloxane]?
Answer: Cyclic Area Percent, Pentamer (x = 5), Trypsin (trypsin [1]): (1.0); Cyclic Area Percent, Tetramer (x = 4), Trypsin (trypsin [1]): (1.9); Cyclic Area Percent, Trimer (x = 3), Trypsin (trypsin [1]): (97.1); Cyclic Area Percent, Pentamer (x = 5), Control (trypsin [1]): (0.8); Cyclic Area Percent, Tetramer (x = 4), Control (trypsin [1]): (1.7); Cyclic Area Percent, Trimer (x = 3), Control (trypsin [1]): (97.5)

Question: Which results are given for c1c[nH]cn1 [imidazole]?
Answer: condensation of trimethylsilanol (result in words) ([2]; pH 7.0, three hours): not observed; condensation of trimethylethoxysilane (result in words) [3]: not observed

Question: Which “trypsin-catalyzed hydrolysis and condensation (result in words)” value (trypsin [4]) does the source give for COCCOCCOCCOCCO[Si](C)(C)C [glycol-functional silane] here?
Answer: not definitive

Question: What does the source list for C[Si]1(c2ccccc2)O[Si](C)(c2ccccc2)O[Si](C)(c2ccccc2)O[Si](C)(c2ccccc2)O1 (centres unmarked) [E, tetramethyltetraphenylcyclotetrasiloxane]?
Answer: Cyclic Area Percent, Tetramer (x = 4), Trypsin (trypsin [1]): (100); Cyclic Area Percent, Tetramer (x = 4), Control (trypsin [1]): (100)

Question: Which “trypsin-catalyzed hydrolysis and condensation (result in words)” value (trypsin [4]) does the source give for CCCCCCO[Si](C)(C)C [trimethylhexoxysilane] here?
Answer: catalyzed the partial hydrolysis of trimethylhexoxysilane without condensation

Question: For CCO[Si](C)(C)CCCN [aminopropyldimethylethoxysilane], which “trypsin-catalyzed hydrolysis and condensation (result in words)” value (trypsin [4]) is on record?
Answer: fully hydrolysed and condensed in the presence and absence of trypsin

Question: Which “trypsin-catalyzed hydrolysis and condensation (result in words)” value (trypsin [4]) does the source give for CCO[Si](C)(C)CCCOCC1CO1 (centres unmarked) [3-glycidoxypropyldimethylethoxysilane] here?
Answer: preferentially catalyze the hydrolysis and condensation

Question: Which “condensation of trimethylsilanol (result in words)” value ([2]; pH 7.0, three hours) does the source give for Cn1ccnc1 [N-methylimidazole] here?
Answer: not observed

Question: And the “condensation of trimethylethoxysilane (result in words)” value [3]?
Answer: not observed

Question: With Cc1ccc(S(=O)(=O)N[C@@H](CCCCN)C(=O)CCl)cc1.Cl [TLCK, N-α-p-tosyl-L-lysine chloromethyl ketone hydrochloride] as the molecule, how does the “product yield of the α-chymotrypsin condensation reaction after TLCK treatment” value ([2]; replicate condensation experiment) read?
Answer: significantly decreased

Question: Which “trypsin-catalyzed hydrolysis and condensation (result in words)” value (trypsin [4]) does the source give for C[Si]1(C)O[Si](C)(C)O[Si](C)(O)O[Si](C)(C)O1 [heptamethylhydroxytetracyclosiloxane] here?
Answer: did not catalyze the condensation

Question: Which “trypsin-catalyzed hydrolysis and condensation (result in words)” value (trypsin [4]) does the source give for CCO[Si](C)(C)c1ccccc1 [phenyldimethylethoxysilane] here?
Answer: hydrolysed but not condensed

Question: Which “Cyclic Area Percent, Pentamer (x = 5), Trypsin” value (trypsin [1]) does the source give for C[Si]1(CCC(F)(F)F)O[Si](C)(CCC(F)(F)F)O[Si](C)(CCC(F)(F)F)O[Si](C)(CCC(F)(F)F)O1 (centres unmarked) [D, tetramethyltetra(trifluoropropyl)cyclotetrasiloxane] here?
Answer: (5.1)

Question: What about the “Cyclic Area Percent, Tetramer (x = 4), Trypsin” value (trypsin [1]) of the same molecule?
Answer: (94.9)

Question: What about the “Cyclic Area Percent, Trimer (x = 3), Trypsin” value (trypsin [1]) of the same molecule?
Answer: (0)

Question: What about the “Cyclic Area Percent, Pentamer (x = 5), Control” value (trypsin [1]) of the same molecule?
Answer: (3.4)

Question: And the “Cyclic Area Percent, Tetramer (x = 4), Control” value (trypsin [1])?
Answer: (96.3)

Question: And the “Cyclic Area Percent, Trimer (x = 3), Control” value (trypsin [1])?
Answer: (0.2)

B1: porcine pancreas trypsin: porcine pancreatic trypsin (protein, UniProt P00761 9-231, looked up)
Trypsin: IVGGYTCAANSIPYQVSLNSGSHFCGGSLINSQWVVSAAHCYKSRIQVRLGEHNIDVLEGNEQFINAAKIITHPNFNGNTLDNDIMLIKLSSPATLNSRVATVSLPRSCAAAGTECLISGWGNTKSSGSSYPSLLQCLKAPVLSDSSCKSSYPGQITGNMICVGFLEGGKDSCQGDSGGPVVCNGQLQGIVSWGYGCAQKNKPGVYTKVCNYVNWIQQTIAAN
Question: For B1, which “increase of yield of the condensation of trimethylsilanol with calcium” value [5] is on record?
Answer: 125%

Question: What about the “hydrolysis of trimethylethoxysilane and condensation of trimethylsilanol (result in words)” value [5] of the same molecule?
Answer: catalysed the complete hydrolysis

Question: And the “hydrolysis of trimethylethoxysilane and condensation of trimethylsilanol (result in words)” value ([5]; listed as trypsin from porcine pancreas)?
Answer: observed to catalyse the hydrolysis and condensation reactions

B2: recombinant bovine trypsin: Recombinant bovine trypsin expressed in maize (protein, UniProt P00760 24-246, looked up)
Serine protease 1: T1 sequence (P00760 24-246)
modifications: expressed in maize
Question: For B2, which “increase of yield of the condensation of trimethylsilanol with calcium” value [5] is on record?
Answer: 65%

Question: What about the “hydrolysis of trimethylethoxysilane and condensation of trimethylsilanol (result in words)” value [5] of the same molecule?
Answer: catalysed the complete hydrolysis

B3: Rhizomucor miehei lipase: fungal lipase (protein, UniProt P19515 95-363, looked up)
Lipase: SIDGGIRAATSQEINELTYYTTLSANSYCRTVIPGATWDCIHCDATEDLKIIKTWSTLIYDTNAMVARGDSEKTIYIVFRGSSSIRNWIADLTFVPVSYPPVSGTKVHKGFLDSYGEVQNELVATVLDQFKQYPSYKVAVTGHSLGGATALLCALDLYQREEGLSSSNLFLYTQGQPRVGDPAFANYVVSTGIPYRRTVNERDIVPHLPPAAFGFLHAGEEYWITDNSPETVQVCTSDLETSDCSNSIVPFTSVLDHLSYFGINTGLCT
Question: Which “condensation of trimethylsilanol, Water” value [6] does the source give for B3 here?
Answer: ✓ (determined to catalyse the condensation of greater than ten times more trimethylsilanol than the negative control reactions; as well as, greater than three or ten times more trimethylsilanol than the BSA reactions in organic and aqueous media, respectively)

B4: Candida antarctica lipase B: Candida antarctica lipase B immobilized on acrylic resin beads (protein, UniProt P41365 26-342, looked up)
Lipase B: LPSGSDPAFSQPKSVLDAGLTCQGASPSSVSKPILLVPGTGTTGPQSFDSNWIPLSTQLGYTPCWISPPPFMLNDTQVNTEYMVNAITALYAGSGNNKLPVLTWSQGGLVAQWGLTFFPSIRSKVDRLMAFAPDYKGTVLAGPLDALAVSAPSVWQQTTGSALTTALRNAGGLTQIVPTTNLYSATDEIVQPQVSNSPLDSSYLFNGKNVQAQAVCGPLFVIDHAGSLTSQFSYVVGRSALRSTTGQARSADYGITDCNPLPANDLTPEQKVAAAALLAPAAAAIVAGPKQNCEPDLMPYARPFAVGKRTCSGIVTP
modifications: immobilized on acrylic resin
notes: Candida antarctica lipase B immobilized on acrylic resin beads
Question: With B4 as the molecule, how does the “condensation of trimethylsilanol, Water” value [6] read?
Answer: ✓ (determined to catalyse the condensation of greater than ten times more trimethylsilanol than the negative control reactions; as well as, greater than three or ten times more trimethylsilanol than the BSA reactions in organic and aqueous media, respectively)
